Patent US20250057928A1, “VACCINE COMPOSITION FOR INDUCING ANTI-IL-23 ANTIBODY” (OSAKA UNIVERSITY, priority 2021, published 2025)
Where no end group is shown, it is not given here.

What was measured:
hairless rats = assay: Psoriasis model, 2% imiquimod (IMQ) applied to auricle of hairless rats; assay type: in vivo, rat; settings: 1 mg/body 3 times
Description: AJP001 conjugated peptide (SEQ ID NO: 2) was dissolved in physiological saline and intradermally administered to hairless rats (female, 6-week-old, N=6) at 1 mg/body 3 times at two-week intervals. From 6 weeks after the initial administration, 2% imiquimod (IMQ) was intermittently applied to the auricle 4 times in total at 1-day intervals to create a psoriasis model. A 2% IMQ application group was provided as a control group. The drug efficacy was evaluated by measuring the thickness of the auricle with a thickness gauge (Mitutoyo Corporation) from the first day of IMQ application to the eighth day. Furthermore, on the 8th day, histopathological evaluation of the auricular tissue was performed. Specifically, the collected auricle was fixed with 10% neutral formalin, and then a specimen was prepared according to a conventional method and stained with HE. HE-stained specimens were observed under a microscope, and inflammatory cell infiltration, edema, and thickness were scored in 4 stages (0: normal, 1: mild, 2: intermediate, 3: severe) and the total score was calculated. Furthermore, the antibody titer (GMT) of the serum at the time point of 6 weeks was measured by the ELISA method (same method as in Example 1. Anti-Rat IgG (GE Healthcare) was used as the secondary antibody). […]

BALB/c mice = assay: rmIL-23-induced mouse auricle inflammation model; assay type: in vivo
Description: AJP001 conjugated peptide (SEQ ID NO: 2) was dissolved in physiological saline and intradermally administered to BALB/c mice (female, 6-week-old, N=8) at 1 mg/body 3 times at two-week intervals. At the time point of 6 weeks after the initial administration, rmIL-23 was administered intradermally to the ear to induce inflammation. With the first administration as Day 0, rmIL-23 was administered 4 times in total on Days 2, 4, and 7. As a control group, an rmIL-23 group without administration of peptide was provided. Auricular thickness was measured using a thickness gauge on each day of administration of rmIL-23 and on Day 9. In order to measure the mRNA expression of IL-17A, IL-22, IL-1β, LCN-2, and CXCL-2 in the auricle, the auricle was collected on the third day of rmIL-23 administration under the same conditions. For mRNA evaluation, a normal group without administration of rmIL-23 was set. […] Using TaqMan Gene Expression Assays (S18: Mm02601777_g1; CXCL-2: Mm00436450_m1; IL-17A: Mm00439618_m1; IL-22: Mm01226722_m1; IL-1β: Mm00434228_m1; LCN-2: Mm01324470_m1), Ct value was measured using Applied Biosystems 7900HT Fast Real Time PCR System. The mRNA expression level was calculated by the ΔΔCt method and evaluated as a relative value to the normal group. […]

epitope peptide = assay: Antibody titer (GMT) of serum of hairless rats, ELISA; assay type: in vivo, rat; settings: 1 mg/body intradermal 3 times at two-week intervals, serum at 6 weeks
Description: AJP001 conjugated peptide having one of the B cell epitope sequences of SEQ ID NOs: 1-5 was dissolved in physiological saline and intradermally administered twice to BALB/c mice (female, 6-week-old, N=5-6) at 0.5 mg/body at 2-week intervals. Blood was collected before administration and 5 weeks after the initial administration, and the antibody titer against each AJP001 conjugated peptide and the binding ability to recombinant mouse IL-23 protein (rmIL-23) were measured by the ELISA method. Specifically, a 96-well plate immobilized with an epitope peptide dissolved at 10 μg/mL in carbonate buffer was blocked with 5% skim milk/PBS, and then serum serially diluted with 5% skim milk/PBS was added, and the mixture was left standing at 4° C. overnight. […] After washing the wells with PBS-T, TMB solution (SIGMA) was added, the wells were allowed to stand for 30 min in the dark, the reaction was stopped by adding 0.5M H2SO4, and the absorbance at 450 nm was measured using a plate reader. The serum dilution rate that gave 1/2 (OD=1.75) of the maximum absorbance was defined as the antibody titer, and the geometric mean titer: GMT was calculated from the individual values. Binding to IL-23 protein was measured by the ELISA method in the same manner as the antibody titer, using rmIL-23 (Antibodies-online GmbH) as the solid-phased antigen and goat serum for blocking. […]

For “SEQ ID NO 2: AJP001-Ahx-B cell epitope peptide conjugate; epitope SSSQQWQR (mouse 152-159) (not fully specified (N-terminus); listed as Mus musculus)”, the “increase in auricular thickness” value (hairless rats; 2% IMQ 4 times from week 6, day 1 to 8) was “suppressive action”, the “inflammatory changes of tissue (auricle, HE score)” value (hairless rats; 2% IMQ, day 8) was “suppressive action” and the “mRNA expression of IL-17A, IL-22, IL-1β, LCN-2, and CXCL-2 in auricle” value (BALB/c mice; 1 mg/body 3 times, third day of rmIL-23 administration) was “suppressive action”. For the same substance, the “increase in auricular thickness” value (BALB/c mice; 1 mg/body intradermal 3 times, rmIL-23 intradermal to ear from week 6) was “suppressive action” and the “antibody titer (GMT)” value (epitope peptide) was “increase”.
